Data on 26 molecules can be found in ChEMBL document CHEMBL1137823, “Building predictive models for protein tyrosine phosphatase 1B inhibitors based on discriminating structural features by reassembling medicinal chemistry building blocks” (J Med Chem, 2004).

For this assay, the target named is T1, Tyrosine-protein phosphatase non-receptor type 1 (Homo sapiens, UniProt P18031).
T1 sequence (P18031 whole entry): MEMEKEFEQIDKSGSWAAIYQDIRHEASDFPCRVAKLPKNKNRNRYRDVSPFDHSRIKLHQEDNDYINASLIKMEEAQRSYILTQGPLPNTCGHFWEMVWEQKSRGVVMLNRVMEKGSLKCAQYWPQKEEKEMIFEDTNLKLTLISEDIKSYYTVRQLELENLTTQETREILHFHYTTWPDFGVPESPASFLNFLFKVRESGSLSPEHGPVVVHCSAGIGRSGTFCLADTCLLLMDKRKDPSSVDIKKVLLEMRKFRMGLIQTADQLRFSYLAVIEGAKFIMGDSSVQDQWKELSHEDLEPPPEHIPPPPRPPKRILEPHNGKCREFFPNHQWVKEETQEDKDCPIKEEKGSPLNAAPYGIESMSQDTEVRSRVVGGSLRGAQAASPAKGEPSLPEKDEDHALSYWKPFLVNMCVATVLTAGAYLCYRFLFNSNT
The experiment in a line: Concentration required for 50% inhibition of tyrosine phosphatase 1B.

Regarding `CCCC[C@@H](Oc1c(Br)cc(-c2ccc(-c3c(Cc4ccccc4)oc4ccccc34)cc2)cc1Br)C(=O)O`, half-maximal inhibition (IC50) required 0.0525 µM.
With `O=C(O)[C@@H](Cc1ccccc1)Oc1ccc(-c2ccc(-c3nc4ccccc4n3Cc3ccccc3)cc2)cc1`, the IC50 – broadly, the concentration that gives 50% inhibition – is 0.437 µM.
In turn, `O=C(O)[C@@H](Cc1ccccc1)Oc1ccc(-c2ccc(-c3nc4cccnc4n3Cc3ccccc3)cc2)cc1` gave an IC50 of 0.214 µM.
`O=C(O)[C@H](Cc1ccccc1)Oc1ccc(-c2ccc(-c3c(Cc4ccc(F)cc4)oc4ccccc34)cc2)cc1` gave an IC50 of 0.603 µM.
To `COC(=O)[C@H](Cc1ccccc1)Oc1ccc(-c2ccc(-c3c(Cc4ccccc4)oc4ccccc34)cc2)cc1` belongs 0.589 µM; to `CCCCc1oc2ccccc2c1-c1ccc(-c2ccc(OC)cc2)cc1`, 0.166 µM.
In turn, `Cc1oc(-c2ccc(C(F)(F)F)cc2)nc1-c1ccc2c(Br)c(OC(Cc3ccccc3)C(=O)O)ccc2c1` (stereo unspecified) gave an IC50 of 0.191 µM.
On to `CCc1oc2ccccc2c1-c1ccc(-c2ccc(O)cc2)cc1`, for which the IC50 was 0.0316 µM.
With `Cc1cc(-c2ccc(-c3c(Cc4ccccc4)oc4ccccc34)cc2)cc(C)c1OS(=O)(=O)c1ccc(C(=O)O)c(O)c1`, half-maximal inhibition (IC50) required 0.0389 µM.
To `CCCCc1oc2ccccc2c1C(=O)c1ccc2cc(O)ccc2c1` belongs 0.00316 µM; to `O=C(O)C(Cc1ccccc1)Oc1ccc(-c2ccc(-c3coc4ccccc34)cc2)cc1` (stereo unspecified), 0.288 µM.
To `CCCCc1oc2ccccc2c1C(O)c1ccc2cc(O)ccc2c1` (stereo unspecified) belongs 0.912 µM; to `Oc1ccc(-c2ccc(-c3coc4ccccc34)cc2)cc1`, 0.02 µM; to `Cc1oc(-c2ccc(C(F)(F)F)cc2)nc1-c1cccc(-c2ccc(OCC(=O)O)cc2)c1`, 0.0631 µM.
In turn, `Cc1oc(-c2ccc(C(F)(F)F)cc2)nc1-c1ccc(-c2ccc(O)cc2)cc1` showed an IC50 of 0.0126 µM.
With `CCCCc1oc2ccccc2c1C(=O)c1ccc(-c2ccc(O)cc2)cc1`, the IC50 is 0.00398 µM.
To `Oc1ccc(-c2ccc(-c3c(Cc4ccccc4)oc4ccccc34)cc2)cc1Br` belongs 0.275 µM.
Take `Cc1oc(-c2ccc(C(F)(F)F)cc2)nc1-c1cccc(-c2ccc(O)cc2)c1`: 0.01 µM corresponded to half-maximal inhibition (IC50).
In turn, `O=C(O)C(Cc1ccccc1)Oc1ccc(-c2ccc(-c3c(Br)oc4ccccc34)cc2)cc1` (stereo unspecified) showed an IC50 of 0.407 µM.
`Oc1c(Br)cc(-c2ccc(-c3c(Cc4ccccc4)oc4ccccc34)cc2)cc1Br` showed an IC50 of 0.479 µM.
For `O=C(O)[C@H](Cc1ccccc1)Oc1ccc(-c2ccc(-c3c(Cc4ccccc4)sc4ccccc34)cc2)cc1-c1ccc(Cl)cc1`, the IC50 was 0.0525 µM.
For the molecule `CCCc1cc(-c2ccc(-c3c(Cc4ccccc4)oc4ccccc34)cc2)ccc1O[C@@H](Cc1ccccc1)C(=O)O`, the IC50 is 0.832 µM.
The result for `O=C(O)[C@@H](Cc1ccccc1)Oc1c(Br)cc(-c2ccc(-c3c(Cc4ccccc4)oc4ccccc34)cc2)cc1Br` reads 0.038 µM.
The result for `CCCCc1oc2ccccc2c1Cc1ccc2ccc(O)cc2c1` reads 0.776 µM; that for `CCCCc1oc2ccccc2c1C(O)c1ccc2ccc(OCn3cnnn3)c(Br)c2c1` (stereo unspecified), 0.912 µM; that for `O=C(O)c1ccc(S(=O)(=O)Oc2ccc(-c3ccc(-c4c(Cc5ccccc5)oc5ccccc45)cc3)cc2[N+](=O)[O-])cc1O`, 0.0398 µM.
